Data set [1] can be described thus: Solubility test using potassium phosphate buffer at pH 7.4. In kind it is physicochemical. The note with it: 5 mg prodrug in 10 mL potassium phosphate buffer pH 7.4, 37° C., HPLC-UV 254 nm; for solubility at 24 h: potassium phosphate buffer, 37 °C, pH 7.4, aqueous buffer, thermodynamic from solid, read-out: Solubility after 24 hours. On the procedure: First, a respective one of the diclofenac prodrugs of EX5 to EX8 and EX12 was mixed with a potassium phosphate buffer (including 50 mM potassium phosphate, sodium chloride, and water; pH 7.4) and then placed in a constant temperature oscillator at 37° C. for 24 hours so as to dissolve the diclofenac prodrug, thereby obtaining a test sample. After that, the test sample was filtered through a filter having a pore size of 0.22 μm to obtain a filtrate. Next, the filtrate was mixed with acetonitrile in equal amounts, and then subjected to oscillation and centrifugation performed in sequence. The resultant supernatant fraction was subjected to HPLC with UV detection under a wavelength of 254 nm.

Data set [2] can be described thus: Determination of particle size (D90) after grinding. The note with it: after grinding with mortar and homogenizer in 0.125 wt % Tween 20; initial particle size about 60 μm. Format: physicochemical. From the text:
The solid particles of the diclofenac prodrugs of EX5 and EX8 were subjected to grinding in order to be formulated into a soluble liquid suspension suitable for intraarticular injection. In general, first, the solid particles of diclofenac prodrugs and deionized water were mixed to form a liquid suspension. Next, the liquid suspension was ground using a homogenizer and then subjected to oscillation treatment to obtain a test sample. Then, the test sample was subjected to determination of particle size distribution. Afterwards, the test sample includes solid particles having a size ranging from 20 μm to 30 μm was centrifuged and lyophilized, followed by determination of purity using HLPC. […]
To be specific, 100 mg of the diclofenac prodrug of EX5 having an initial particle size of about 60 μm was manually ground using a mortar, and then mixed with 2.0 mL of an aqueous solution containing 0.125 wt % of Tween 20 and deionized water, so as to obtain a slurry. […] The thus determined average particle size D90 of the diclofenac prodrug of EX5 was 8.4 μm.
Meanwhile, 102 mg of the diclofenac prodrug of EX8 having an initial particle size of about 60 μm was manually ground using a mortar, and then mixed with 2.0 mL of an aqueous solution containing 0.125 wt % of Tween 20 and saline, so as to obtain a slurry. […] The thus determined average particle size D90 of the diclofenac prodrug of EX8 was 18.2 μm.

Converted amounts (≈) assume the structure as drawn.

For `O=C(Cc1ccccc1Nc1c(Cl)cccc1Cl)OCOC(=O)N1CCOCC1` [EX5, (2-(2-((2,6-dichlorophenyl)amino)phenyl)acetoxy)methyl morpholine-4-carboxylate], the “Solubility after 24 hours” value in data set [1] (listed as EX5 (crystalline)) is 0.06 µg/mL (≈ 0.137 µM). In addition, in data set [2], the “average particle size D90” value is reported as 8.4 μm.
With `O=C(Cc1ccccc1Nc1c(Cl)cccc1Cl)OCOC(=O)OCCCO` [EX8, (((3-hydroxypropoxy)carbonyl)oxy)methyl 2-(2-((2,6-dichlorophenyl)amino)phenyl)acetate], in data set [1], the solubility at 24 h is 28.4 µg/mL (≈ 66.4 µM). Moreover, in data set [2], the “average particle size D90” value amounted to 18.2 μm.
For the compound `CC1(C)OCC(COC(=O)OCOC(=O)Cc2ccccc2Nc2c(Cl)cccc2Cl)O1` (stereo not shown) [EX6, ((((2,2-dimethyl-1,3-dioxolan-4-yl)methoxy)carbonyl)oxy)methyl 2-(2-((2,6-dichlorophenyl)amino)phenyl)acetate], the solubility at 24 h in data set [1] came out at 0.33 µg/mL (≈ 0.681 µM).
Same read-out and setting: the figure for `O=C(Cc1ccccc1Nc1c(Cl)cccc1Cl)OCOC(=O)OCC(O)CO` (stereo not shown) [EX7, (((2,3-dihydroxypropoxy)carbonyl)oxy)methyl 2-(2-((2,6-dichlorophenyl)amino)phenyl)acetate] is 269 µg/mL (≈ 604 µM).
On to `O=C(Cc1ccccc1Nc1c(Cl)cccc1Cl)OCOC(=O)N1CCOCC1` [EX5 (amorphous), (2-(2-((2,6-dichlorophenyl)amino)phenyl)acetoxy)methyl morpholine-4-carboxylate], for which the “Solubility after 24 hours” value in data set [1] came out at 4.24 µg/mL (≈ 9.65 µM).

In general, solubility refers to the concentration that dissolves in the medium under given conditions.

(Values after patent US20230364101A1, “DICLOFENAC PRODRUG AND USE OF THE SAME” (Pumont Biotech Co., Ltd., priority 2022, published 2023).)
